Source: the supplement of paper PMC6045584
± gives the standard deviation of the averaged measurements.

Key:
[1] = compound: Cc1nc(Nc2n[nH]c3c2CN(C(=O)N[C@H](CN(C)C)c2ccccc2)C3(C)C)c2sccc2n1; assay: surviving fraction relative to DMSO-only wells; higher = less growth inhibition; settings: exposure time: 5 days
Outline: (§1)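 Viability values are CellTiter-Glo luminescence readings, given as surviving fraction against the median of DMSO-only wells. The readings were taken after 10 minutes at room temperature, following five days of continuous exposure to inhibitors at 0.5, 1, 5, 10, 50, 100, 500 and 1000 nM that began 24 hours after log-phase tumour cell lines were seeded at 250–500 cells per well in 384-well plates. Every line was screened three times and kept only if replicate Pearson r >0.7 and median Z' >0.3.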

[2] = compound: CO[C@H]1C[C@@H]2CC[C@@H](C)[C@@](O)(O2)C(=O)C(=O)N2CCCC[C@H]2C(=O)O[C@H]([C@H](C)C[C@@H]2CC[C@@H](OCCO)[C@H](OC)C2)CC(=O)[C@H](C)/C=C(\C)[C@@H](O)[C@@H](OC)C(=O)[C@H](C)C[C@H](C)/C=C/C=C/C=C/1C [EVEROLIMUS]; assay: as above; settings: exposure time: 5 days
Outline: as §1

| Test System | surviving fraction ([1]; 0.5 nM) | surviving fraction ([1]; 1 nM) | surviving fraction ([1]; 5 nM) | surviving fraction ([1]; 10 nM) | surviving fraction ([1]; 50 nM) | surviving fraction ([1]; 100 nM) | surviving fraction ([1]; 500 nM) | surviving fraction ([1]; 1000 nM) | surviving fraction ([2]; 0.5 nM) | surviving fraction ([2]; 1 nM) | surviving fraction ([2]; 5 nM) | surviving fraction ([2]; 10 nM) | surviving fraction ([2]; 50 nM) | surviving fraction ([2]; 100 nM) | surviving fraction ([2]; 500 nM) | surviving fraction ([2]; 1000 nM) |
| --- | --- | --- | --- | --- | --- | --- | --- | --- | --- | --- | --- | --- | --- | --- | --- | --- |
| VCAP PROSTATE | 0.665 ± 0.11 | 0.496 ± 0.006 | 0.428 ± 0.025 | 0.398 ± 0.025 | 0.451 ± 0.084 | 0.397 ± 0.022 | 0.245 ± 0.036 | 0.0417 ± 0.0063 | 1.04 ± 0.079 | 1.04 ± 0.052 | 0.941 ± 0.1 | 0.984 ± 0.032 | 0.891 ± 0.15 | 0.898 ± 0.027 | 0.758 ± 0.078 | 0.766 ± 0.056 |
| SCC36 HEADNECK | 0.862 ± 0.084 | 0.681 ± 0.052 | 0.258 ± 0.011 | 0.188 ± 0.019 | 0.152 ± 0.011 | 0.164 ± 0.029 | 0.101 ± 0.0062 | 0.106 ± 0.0084 | 1.07 ± 0.056 | 1.09 ± 0.14 | 1.03 ± 0.018 | 0.899 ± 0.061 | 1.008 ± 0.0093 | 0.909 ± 0.097 | 0.842 ± 0.031 | 0.733 ± 0.014 |
| SUM149 BREAST | 0.863 ± 0.011 | 1.01 ± 0.02 | 0.178 ± 0.014 | 0.365 ± 0.037 | 0.124 ± 0.0069 | 0.145 ± 0.011 | 0.0783 ± 0.0083 | 0.117 ± 0.013 | 0.844 ± 0.035 | 0.671 ± 0.098 | 0.536 ± 0.068 | 0.523 ± 0.079 | 0.462 ± 0.039 | 0.411 ± 0.04 | 0.403 ± 0.023 | 0.335 ± 0.03 |
| CAL51 BREAST | 0.898 ± 0.011 | 0.765 ± 0.047 | 0.281 ± 0.017 | 0.181 ± 0.0083 | 0.0752 ± 0.002 | 0.0562 ± 0.0013 | 0.0417 ± 0.0018 | 0.0317 ± 0.0014 | 0.684 ± 0.049 | 0.527 ± 0.046 | 0.406 ± 0.026 | 0.376 ± 0.0096 | 0.332 ± 0.029 | 0.283 ± 0.011 | 0.257 ± 0.039 | 0.26 ± 0.025 |
| HCC38 BREAST | 1.03 ± 0.25 | 0.943 ± 0.17 | 0.291 ± 0.038 | 0.255 ± 0.029 | 0.182 ± 0.02 | 0.186 ± 0.034 | 0.178 ± 0.034 | 0.0973 ± 0.011 | 1.17 ± 0.022 | 1.01 ± 0.065 | 0.897 ± 0.11 | 0.925 ± 0.069 | 0.795 ± 0.08 | 0.888 ± 0.033 | 0.733 ± 0.024 | 0.852 ± 0.027 |
| JURKAT HAEMATOPOIETIC AND LYMPHOID TISSUE | 1.01 ± 0.032 | 0.939 ± 0.02 | 0.169 ± 0.0038 | 0.095 ± 0.0044 | 0.0877 ± 0.004 | 0.086 ± 0.001 | 0.06 ± 0.001 | 0.051 | 0.988 ± 0.023 | 0.917 ± 0.041 | 0.572 ± 0.0079 | 0.557 ± 0.033 | 0.433 ± 0.029 | 0.396 ± 0.034 | 0.326 ± 0.021 | 0.275 ± 0.018 |
| HCC1954 BREAST | 1 ± 0.05 | 0.88 ± 0.12 | 0.43 ± 0.044 | 0.466 ± 0.0085 | 0.487 ± 0.023 | 0.493 ± 0.018 | 0.428 ± 0.028 | 0.253 ± 0.035 | 0.4 ± 0.05 | 0.376 ± 0.082 | 0.399 ± 0.074 | 0.428 ± 0.08 | 0.321 ± 0.014 | 0.308 ± 0.016 | 0.249 ± 0.039 | 0.275 ± 0.037 |
| MDAMB453 BREAST | 1.14 ± 0.062 | 1.03 ± 0.037 | 0.648 ± 0.045 | 0.598 ± 0.018 | 0.416 ± 0.038 | 0.359 ± 0.048 | 0.23 ± 0.07 | 0.0803 ± 0.015 | 0.941 ± 0.11 | 0.75 ± 0.07 | 0.461 ± 0.0079 | 0.369 ± 0.037 | 0.339 ± 0.035 | 0.305 ± 0.018 | 0.301 ± 0.024 | 0.284 ± 0.011 |
| 93VU HEADNECK | 1.01 ± 0.12 | 0.883 ± 0.045 | 0.39 ± 0.012 | 0.298 ± 0.044 | 0.24 ± 0.018 | 0.195 ± 0.0078 | 0.0973 ± 0.013 | 0.0723 ± 0.0095 | 0.953 ± 0.098 | 0.905 ± 0.076 | 0.865 ± 0.024 | 0.841 ± 0.065 | 0.85 ± 0.051 | 0.767 ± 0.11 | 0.706 ± 0.027 | 0.649 ± 0.049 |
| SUM159 BREAST | 1.13 ± 0.2 | 1.15 ± 0.2 | 1.15 ± 0.21 | 1.1 ± 0.18 | 0.554 ± 0.027 | 0.407 ± 0.026 | 0.369 ± 0.028 | 0.292 ± 0.0093 | 1.08 ± 0.023 | 1.09 ± 0.024 | 0.921 ± 0.047 | 0.851 ± 0.04 | 0.852 ± 0.06 | 0.807 ± 0.014 | 0.808 ± 0.022 | 0.784 ± 0.021 |
